Experimental data: paper PMC10483525, “Synthesis, Structural Investigations, DNA/BSA Interactions, Molecular Docking Studies, and Anticancer Activity of a New 1,4-Disubstituted 1,2,3-Triazole Derivative” (ACS Omega, 2023)

Experiments:
Test in all cases: MTT assay
Type in all cases: cell-based, human
HEK-293 = tested on: HEK-293
Protocol: (§1) Human cancer cell lines (MDA-MB-231, LNCaP, Caco-2) and a human healthy cell line (HEK-293) were obtained from the European Collection of Cell Cultures. The cells were incubated in a humidified incubator (37 °C, 5% CO2) and cultured under standard conditions in Dulbecco’s modified Eagle medium (DMEM), 10% heat-inactivated fetal bovine serum, 100 U mL^–1 penicillin, 100 U mL^–1 streptomycin, and 4 mM L-glutamine. […] A cell culture medium was used to make further dilutions, while keeping the equivalent of DMF below 0.5% of the total volume.[94] […]
(§2) 7. Cell Viability Inhibition Assay
(§3) MDA-MB-231, LNCaP, Caco-2 and HEK-293 cells (5x10^3 per well) seeded in 96-well plates to assess cell viability by the 3-[4,5-dimethylthiazol-2-yl]-2,5-diphenyltetrazolium bromide (MTT) assay for 24 h at 37°C. Then cells were treated with compound 3 at different concentrations (3-100 µM) at 100μl/well. In parallel, the traditional anticancer agent cisplatin and etoposid was used as positive controls under identical conditions. After 24, 48 and 72 h incubation, 5 mg/ml MTT solution (20 μl/well) was added and cultured for another 4 h. Then, the supernatant was discarded and dimethyl sulfoxide was added (100 μl/well). The absorbance (A) was measured spectrophotometrically at 540 nm by a Microplate Reader (SpectraMax i3x).
(§4) A graph was plotted between the concentrations of the extract versus the percent viability. The […]
(§5) calculated from graph. All assays were performed in three replicates per concentration level. 11 […]

LNCaP = details: for IC50: LNCaP
Protocol: as §1, §2, §3, §4, §5

MDA-MB-231 = tested on: MDA-MB-231
Protocol: as §1, §2, §3, §4, §5

Caco-2 = details: for IC50: Homo sapiens
Protocol: as §1, §2
MDA-MB-231, LNCaP, Caco-2 and HEK-293 cells (5x10^3 per well) seeded in 96-well plates to assess cell viability by the 3-[4,5-dimethylthiazol-2-yl]-2,5-diphenyltetrazolium bromide (MTT) assay for 24 h at 37°C. Then cells were treated with compound 3 at different concentrations (3-100 µM) at 100μl/well. […]
and etoposid was used as positive controls under identical conditions. After 24, 48 and 72 h incubation, 5 mg/ml MTT solution (20 μl/well) was added and cultured for another 4 h. Then, the supernatant was discarded and dimethyl sulfoxide was added (100 μl/well). The absorbance (A) was measured spectrophotometrically at 540 nm by a Microplate Reader (SpectraMax i3x).
as §4, §5

[1] = 48 h, SI = IC50 on normal cells/IC50 on cancer cells

## N.N.[Cl][Pt][Cl] [cisplatin]
HEK-293; HEK-293, 24 h
  IC50: 18.62 ± 0.09 µM
HEK-293; HEK-293, 48 h
  IC50: 4.7 ± 0.01 µM
HEK-293; HEK-293, 72 h
  IC50: 2.43 ± 0.01 µM
LNCaP; 24 h
  IC50: 26.1 ± 0.58 µM
LNCaP; 48 h
  IC50: 25.9 ± 0.48 µM
LNCaP; 72 h
  IC50: 10.3 ± 0.28 µM
MDA-MB-231; MDA-MB-231, 24 h
  IC50: 8.43 ± 0.01 µM
MDA-MB-231; MDA-MB-231, 48 h
  IC50: 2.19 ± 0.02 µM
MDA-MB-231; MDA-MB-231, 72 h
  IC50: 1.78 ± 0.01 µM

## COc1cc([C@@H]2c3cc4c(cc3[C@@H](O[C@@H]3O[C@@H]5CO[C@@H](C)O[C@H]5[C@H](O)[C@H]3O)[C@H]3COC(=O)[C@H]23)OCO4)cc(OC)c1O [etoposide]
HEK-293; Homo sapiens, HEK293, HEK-293, 24 h
  IC50: 110.3 ± 0.16 µM
HEK-293; Homo sapiens, HEK293, HEK-293, 48 h
  IC50: 59.2 ± 0.32 µM
HEK-293; Homo sapiens, HEK293, HEK-293, 72 h
  IC50: 51.62 ± 0.48 µM
LNCaP; [1]
  SI HEK-293/LNCap: 0.95
LNCaP; Homo sapiens, 24 h
  IC50: 81.47 ± 0.62 µM
LNCaP; Homo sapiens, 48 h
  IC50: 62.02 ± 0.61 µM
LNCaP; Homo sapiens, 72 h
  IC50: 20.79 ± 0.08 µM
MDA-MB-231; [1]
  SI HEK-293/MDA-MB-231: 0.94
MDA-MB-231; Homo sapiens, MDA-MB-231, 24 h
  IC50: 85.4 ± 0.74 µM
MDA-MB-231; Homo sapiens, MDA-MB-231, 48 h
  IC50: 63.17 ± 0.05 µM
MDA-MB-231; Homo sapiens, MDA-MB-231, 72 h
  IC50: 24.3 ± 0.44 µM
Caco-2; [1]
  SI HEK-293/Caco-2: 1.1
Caco-2; Caco-2, 24 h
  IC50: 76.27 ± 0.34 µM
Caco-2; Caco-2, 48 h
  IC50: 53.81 ± 0.17 µM
Caco-2; Caco-2, 72 h
  IC50: 17.5 ± 0.26 µM
